Test results published in patent US7384954B2 (priority 2003, dated 2008).

Target: α7 nAChR subtype (Rattus norvegicus, UniProt Q05941)
Assay type: binding
Conditions: read-out: KD of radioligand from saturation curves

Chain of α7 nAChR subtype (Q05941 23-502 limits assumed): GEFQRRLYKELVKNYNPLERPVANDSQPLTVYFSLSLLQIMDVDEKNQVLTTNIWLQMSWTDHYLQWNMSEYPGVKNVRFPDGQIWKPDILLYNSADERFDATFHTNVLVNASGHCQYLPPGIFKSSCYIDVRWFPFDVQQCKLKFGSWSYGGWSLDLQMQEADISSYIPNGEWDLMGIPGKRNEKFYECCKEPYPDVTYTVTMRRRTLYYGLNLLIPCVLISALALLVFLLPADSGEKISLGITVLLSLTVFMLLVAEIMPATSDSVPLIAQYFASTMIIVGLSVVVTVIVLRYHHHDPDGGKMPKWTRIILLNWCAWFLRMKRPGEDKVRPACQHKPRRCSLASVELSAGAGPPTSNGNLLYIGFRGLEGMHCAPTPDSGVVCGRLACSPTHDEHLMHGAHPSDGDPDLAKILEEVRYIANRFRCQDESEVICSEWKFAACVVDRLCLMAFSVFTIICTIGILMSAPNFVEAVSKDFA

125I-α-Bungarotoxin [[^125I]-α-BTX]
Kd: 1.67 nM
